Assay results as given in US12209145B2, “PCSK9 antagonist compounds” (Merck Sharp & Dohme LLC, priority 2018, dated 2025).

Columns and labels:
PCSK9 [1] = target: T1, PCSK9 (Homo sapiens, UniProt Q8NBP7); experiment: PCSK9 Alexa FRET Plus TR-FRET assay (displacement of AlexaFluor647 tagged cyclic peptide Reagent B); assay type: binding; conditions: 0.5 nM biotinylated PCSK9, 960 nM AF cyclic peptide Reagent B, Ki calculated from IC50 and KD of AF peptide
T1 construct: Biotinylated PCSK9 was obtained commercially; purchased
Method: (§1) The following is a description of the assays used to determine activity of compounds of the invention, and any comparator compounds reported, toward PCSK9 antagonism. Biotinylated PCSK9 was obtained commercially.
A solution containing 1 nM biotinylated PCSK9+2.5 nM Lance Streptavidin Europium (Strep-Eu) is made in 50 mM HEPES pH 7.4, 0.15 M NaCl, 5 mM CaCl2, 0.01% BSA, and 0.01% Surfactant P20. A separate solution containing 1920 nM of the AlexaFluor tagged cyclic peptide is made in the same buffer system. An Echo is used to transfer 0.075 ul of compound plus 0.675 ul of DMSO to each well of an assay plate followed by the addition of 15 ul of PCSK9+Stept-Eu and 15 ul of AF peptide. The final assay volume is 30.750 ul containing 0.5 nM PCSK9, 1.25 nM Strep-Eu, and 960 nM AF cyclic peptide. The reaction is incubated at room temperature for at least two hours prior to fluorescence measurements using an Envision Multilabel Reader. IC50 values are determined by fitting data to a sigmoidal dose-response curve using nonlinear regression. Ki is then calculated from the IC50 and the KD of AF cyclic peptide. Counts (B-counts) of the europium-labeled PCSK9 are followed to observe if compounds are adversely affecting PCSK9. A fall off of the B-counts is likely indicates a false positive of inhibition. Data from this procedure is reported as “P=‘numerical value’ (nanomolar)”
Activity data obtained by one or both of the above-described procedures is reported for selected example compounds of the invention in the following format: Example No.: A (standard TR Fret)=‘numerical value’; P (Alexa Fret plus standard TR Fret)=‘numerical value’/, note that all values reported are nanomolar.

PCSK9 [2] = target: T1, PCSK9; experiment: PCSK9 Alexa FRET Ultra TR-FRET assay (displacement of AlexaFluor647 tagged cyclic peptide); assay type: binding; conditions: 0.5 nM biotinylated PCSK9, 960 nM AF cyclic peptide, Ki calculated from IC50 and KD of AF peptide
Method: as §1
A solution containing 1 nM biotinylated PCSK9+2.5 nM Lance Streptavidin Europium (Strep-Eu) is made in 50 mM HEPES pH 7.4, 0.15 M NaCl, 5 mM CaCl2, 0.01% BSA, and 0.01% Surfactant P20. A separate solution containing 1920 nM of the AlexaFluor tagged cyclic peptide is made in the same buffer system. An Echo is used to transfer 0.015 ul of compound plus 0.735 ul of DMSO to each well of an assay plate followed by the addition of 15 ul of PCSK9+Stept-Eu and 15 ul of AF peptide. The final assay volume is 30.750 ul containing 0.5 nM PCSK9, 1.25 nM Strep-Eu, and 960 nM AF cyclic peptide. The reaction is incubated at room temperature for at least two hours prior to fluorescence measurements using an Envision Multilabel Reader. IC50 values are determined by fitting data to a sigmoidal dose-response curve using nonlinear regression. Ki is then calculated from the IC50 and the KD of AF cyclic peptide. Counts (B-counts) of the europium-labeled PCSK9 are followed to observe if compounds are adversely affecting PCSK9. A fall off of the B-counts is likely indicates a false positive of inhibition. Data from this procedure is reported as “Ki Ultra=‘numerical value’ (data reported is nanomolar)”

T1 sequence (Q8NBP7 153-692): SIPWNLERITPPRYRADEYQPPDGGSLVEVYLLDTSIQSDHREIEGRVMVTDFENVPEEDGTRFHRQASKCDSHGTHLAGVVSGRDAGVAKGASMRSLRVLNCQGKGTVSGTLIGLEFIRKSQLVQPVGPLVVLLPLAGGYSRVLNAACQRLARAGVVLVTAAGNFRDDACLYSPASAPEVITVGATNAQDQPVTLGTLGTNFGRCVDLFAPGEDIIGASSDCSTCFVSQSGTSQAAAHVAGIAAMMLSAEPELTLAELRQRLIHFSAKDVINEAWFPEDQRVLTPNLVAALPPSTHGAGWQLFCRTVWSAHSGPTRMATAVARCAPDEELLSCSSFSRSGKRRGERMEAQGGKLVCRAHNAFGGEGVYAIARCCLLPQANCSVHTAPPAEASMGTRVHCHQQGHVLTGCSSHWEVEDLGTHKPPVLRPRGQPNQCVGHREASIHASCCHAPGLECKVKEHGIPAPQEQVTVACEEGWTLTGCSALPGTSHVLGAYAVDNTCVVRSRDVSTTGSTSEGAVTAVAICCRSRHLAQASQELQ

Structure (SMILES) | Ki (PCSK9 [1]; read-out: Ki Plus) [nM] | Ki (PCSK9 [2]; read-out: Ki Ultra) [pM] | Ki (PCSK9 [1]; Ki Plus) [nM] | Ki (PCSK9 [2]; Ki Ultra) [pM]
COc1ccc(C[C@@H]2NC(=O)[C@H]([C@@H](C)O)NC(=O)[C@@H]3[C@@H]4CCN3C(=O)[C@@H]3Cc5cn(c6ccc(F)cc56)CCCCCN(Cc5ccc(cc5)CCNC(=O)[C@]5(C)CCCN5C2=O)C(=O)CCC(=O)N[C@@H](C)C(=O)N[C@H](CNC(=O)CCOCCOCC[N+](C)(C)C)C(=O)N[C@@H](Cc2cccc(c2)CNC(=O)CO4)C(=O)N3)cc1 [Ex-17] | ≤ 0.00558 | 2.8 |  | 
COc1ccc(C[C@@H]2NC(=O)[C@H]([C@@H](C)O)NC(=O)[C@@H]3[C@@H]4CCN3C(=O)[C@@H]3Cc5cn(c6ccc(F)cc56)CCCCCCN(Cc5ccc(cc5)CCNC(=O)[C@]5(C)CCCN5C2=O)C(=O)CCCC(=O)N[C@H](CNC(=O)CCOCCOCC[N+](C)(C)C)C(=O)N[C@@H](Cc2cccc(c2)CNC(=O)CO4)C(=O)N3)cc1 [Ex-18] |  |  | 0.0336 | 118
COc1ccc(C[C@@H]2NC(=O)[C@H]([C@@H](C)O)NC(=O)[C@@H]3[C@@H]4CCN3C(=O)[C@@H]3Cc5cn(c6ccc(F)cc56)CCCCCCN(Cc5ccc(cc5)CCNC(=O)[C@]5(C)CCCN5C2=O)C(=O)CCC(=O)N[C@H]2CN(C(=O)CCOCCOCC[N+](C)(C)C)CCCCC(=O)NC[C@@H](NC2=O)C(=O)N[C@@H](Cc2cccc(c2)CNC(=O)CO4)C(=O)N3)cc1 [Ex-19] | 0.0166 | 12 |  | 
COc1ccc(C[C@@H]2NC(=O)[C@H]([C@@H](C)O)NC(=O)[C@@H]3[C@@H]4CCN3C(=O)[C@@H]3Cc5cn(c6ccc(F)cc56)CCCCCCN(Cc5ccc(cc5)CCNC(=O)[C@]5(C)CCCN5C2=O)C(=O)CCCCC(=O)N[C@H](CNC(=O)CCOCCOCC[N+](C)(C)C)C(=O)N[C@@H](Cc2cccc(c2)CNC(=O)CO4)C(=O)N3)cc1 [Ex-20] | 0.013 | 17.1 |  | 
COc1ccc(C[C@@H]2NC(=O)[C@H]([C@@H](C)O)NC(=O)[C@@H]3[C@@H]4CCN3C(=O)[C@@H]3Cc5cn(c6ccc(F)cc56)CCCCCCN(Cc5ccc(cc5)CCNC(=O)[C@]5(C)CCCN5C2=O)C(=O)CCCCCC(=O)N[C@H](CNC(=O)CCOCCOCC[N+](C)(C)C)C(=O)N[C@@H](Cc2cccc(c2)CNC(=O)CO4)C(=O)N3)cc1 [Ex-21] |  |  | 0.00569 | 1.26
COc1ccc(C[C@@H]2NC(=O)[C@H]([C@@H](C)O)NC(=O)[C@@H]3[C@@H]4CCN3C(=O)[C@@H]3Cc5cn(c6ccc(F)cc56)CCCCCCN(Cc5ccc(cc5)CCNC(=O)[C@]5(C)CCCN5C2=O)C(=O)CCC(=O)N[C@@H](CNC(=O)CCOCCOCC[N+](C)(C)C)C(=O)N[C@H](C)C(=O)N[C@@H](Cc2cccc(c2)CNC(=O)CO4)C(=O)N3)cc1 [Ex-22] | 0.00926 | 15.2 |  | 
COc1ccc(C[C@@H]2NC(=O)[C@H]([C@@H](C)O)NC(=O)[C@@H]3[C@@H]4CCN3C(=O)[C@@H]3Cc5cn(c6ccc(F)cc56)CCCCCCN(Cc5ccc(cc5)CCNC(=O)[C@]5(C)CCCN5C2=O)C(=O)CCC(=O)N[C@@H](C)C(=O)N[C@H](CNC(=O)CCC(=O)NC2OC(CO)C(O)C(O)C2O)C(=O)N[C@@H](Cc2cccc(c2)CNC(=O)CO4)C(=O)N3)cc1 (stereo partly drawn) [Ex-23] | 0.00938 | 2.39 |  | 
COc1ccc(C[C@@H]2NC(=O)[C@H]([C@@H](C)O)NC(=O)[C@@H]3[C@@H]4CCN3C(=O)[C@@H]3Cc5cn(c6ccc(F)cc56)CCCCCCN(Cc5ccc(cc5)CCNC(=O)[C@]5(C)CCCN5C2=O)C(=O)CCC(=O)N[C@@H](C)C(=O)N[C@H](CNC(=O)CCCCC[N+](C)(C)C)C(=O)N[C@@H](Cc2cccc(c2)CNC(=O)CO4)C(=O)N3)cc1 [Ex-25] | 0.0113 |  |  | 4.63
COc1ccc(C[C@@H]2NC(=O)[C@H]([C@@H](C)O)NC(=O)[C@@H]3C4CCN3C(=O)[C@@H]3Cc5cn(c6ccc(F)cc56)CCCCN(Cc5ccc(cc5)CCNC(=O)[C@]5(C)CCCN5C2=O)C(=O)CCCCCC(=O)N[C@H](CNC(=O)CCC(=O)NC2OC(CO)C(O)C(O)C2O)C(=O)N[C@@H](Cc2cccc(c2)CNC(=O)CO4)C(=O)N3)cc1 (stereo partly drawn) [Ex-26] | ≤ 0.00558 | 2.75 |  | 
